Test results reported in patent US20160250285A1, “NEUROPROTECTIVE PEPTIDES” (priority 2013, published 2016).
“Also recorded” adds a separate entry of the source. Like-named read-outs stand apart in the source and are kept apart here.

Tests used:
primary rat astrocytes = assay: In vitro ischemia/OGD model, astrocytes; format: cell-based; details: 2 μM, 15 min prior to OGD (FIG. 42)
Protocol: (§1) A brain endothelial cell line (bEND3) and a neuroblastoma cell line (SH-SY5Y) were also used for some experiments. bEND3 and SH-SY5Y cells were cultured using standard techniques in DMEM plus 5 or 15% foetal calf serum. Rat primary astrocytes were obtained and cultured as described for cortical neurons except DMEM plus 10% foetal calf serum was used instead of Neurobasal/2% B27, and the mitotic inhibitor, cytosine arabinofuraNOside was not used.
(§2) The in vitro ischemia model was also used for bEND3 cells, SH-SY5Y cells, and astrocytes. For bEND3 cells anaerobic incubation was extended to 2-3 hours and upon removal from the anaerobic incubator, 60 μl of DMEM/2% FCS was added to wells. […]
(§3) Twenty-four hours after insult, neuronal cultures were examined by light microscopy for qualitative assessment of neuronal cell viability. Neuronal viability was quantitatively measured by 3-(4,5,dimethyliazol-2-yl)-5-(3-carboxymethoxy-phenyl)-2-(4-sulfophenyl)-2H-tetrazolium salt (MTS) assay (Promega, Australia). The MTS assay measures the cellular conversion of the tetrazolium salt to a water-soluble brown formazan salt, which is detected spectrophotometrically at 490 nm. MTS absorbance data were converted to reflect proportional cell viability relative to both the untreated and treated controls, with the untreated control taken as 100% viability, and presented as mean±SEM. […]

[1] = test system: primary cortical neuronal cultures; details: for neuroprotection, peptide present during the 5 minute glutamic acid insult only: FIG. 28; for neuroprotection, 10 minute pre-exposure removed immediately prior to insult: FIG. 29, FIG. 14
[2] = test system: neuroblastoma cell line (SH-SY5Y); assay: In vitro ischemia model, SH-SY5Y cells; format: cell-based; details: 5 μM during/2.5 μM post (FIG. 3c)
Protocol: as §1, §2, §3

| fold more potent than TAT-D, based on IC50 values ([1]; glutamic acid model) [fold] | IC50 ([1]; read-out: IC50: Glutamic acid model, Table 4, polyarginine peptides, from dose response graph FIG. 1e) [nM] | Compound | astrocyte cell death after in vitro ischemia (primary rat astrocytes) | IC50 [1] [nM] | neuroprotective efficacy at the higher concentration ([1]; 5 μM, dose response study) | neuroprotection, peptide present during the 5 minute glutamic acid insult only [1] | neuroprotection, 10 minute pre-exposure removed immediately prior to insult [1] | neuroprotection (neuronal viability) ([1]; peptide 15 min prior to and during glutamic acid exposure, viability 24 h, MTS) | protection of SH-SY5Y cells (cell death after in vitro ischemia) [2] | neuroprotection when added 15 minutes post-insult ([1]; 15 min post-glutamic acid (FIG. 1d)) | MTS absorbance levels relative to baseline ([1]; normal neurons and following injury) | IC50 ([1]; read-out: IC50: Glutamic acid model, Table 3, from dose response graph FIG. 1a, peptide 15 min prior to and during 100 μM glutamic acid (5 min), viability 24 h, MTS) [nM] |
| --- | --- | --- | --- | --- | --- | --- | --- | --- | --- | --- | --- | --- |
|  |  | H-RRRRRRRRRRRRRRRRRR-OH [Peptide R18] | reduced astrocyte cell death | 240 | reduced | effective | effective | showed significant neuroprotection |  |  |  |  |
| 17 | 830 | N=C(N)NCCC[C@H](NC(=O)[C@H](CCCNC(=N)N)NC(=O)[C@H](CCCNC(=N)N)NC(=O)[C@H](CCCNC(=N)N)NC(=O)[C@H](CCCNC(=N)N)NC(=O)[C@H](CCCNC(=N)N)NC(=O)[C@H](CCCNC(=N)N)NC(=O)[C@H](CCCNC(=N)N)NC(=O)[C@@H](N)CCCNC(=N)N)C(=O)O [Peptide R9] |  |  |  | effective | effective |  | reduced; also recorded: able to protect | mildly effective | increase MTS absorbance levels above baseline levels | 780 |
